This is an account of results in ChEMBL document CHEMBL3046425, “Synthesis of Antifungal 2-Anilino-4-phenylthiazoles and Their Inhibitory Activities on Sterol Biosynthesis” (J Pestic Sci, 2001).

In brackets after ≈: the same amount, converted by molar mass. Some results are limits rather than exact numbers.

Test [1] relates to Trichophyton mentagrophytes. In words: Antifungal activity against Trichophyton mentagrophytes assessed as accumulation of squalene using [2-14C]acetate at 1 x 10^-9 M. In kind it is functional.
In test [2] the test system is Pyricularia oryzae. In words: Antifungal activity against Magnaporthe oryzae. Format: functional, organism-based.
Test [3] relates to Botrytis cinerea. In words: Antifungal activity against Botryotinia fuckeliana assessed as accumulation of squalene using [2-14C]acetate at 1 x 10^-5 M. In kind it is functional.
The test system of test [4] is Botrytis cinerea. Description: Antifungal activity against Botryotinia fuckeliana assessed as accumulation of squalene using [2-14C]acetate at 1 x 10^-6 M. In kind it is functional.
Test [5] relates to Botrytis cinerea. In words: Antifungal activity against Botryotinia fuckeliana assessed as accumulation of squalene using [2-14C]acetate at 1 x 10^-7 M. Format: functional.
The test system of test [6] is Trichophyton mentagrophytes. In words: Antifungal activity against Trichophyton mentagrophytes assessed as accumulation of squalene using [2-14C]acetate at 1 x 10^-7 M. In kind it is functional.
Test [7] concerns Trichophyton mentagrophytes. In words: Antifungal activity against Trichophyton mentagrophytes assessed as accumulation of squalene using [2-14C]acetate at 1 x 10^-8 M. Format: functional.
The subject of test [8] is Trichophyton mentagrophytes. In words: Antifungal activity against Trichophyton mentagrophytes. In kind it is functional.
The subject of test [9] is Botrytis cinerea. Description: Antifungal activity against Botryotinia fuckeliana. Format: functional, organism-based.
Test [10] deals with Botrytis cinerea. In words: Antifungal activity against Botryotinia fuckeliana assessed as accumulation of squalene using [2-14C]acetate at 3 x 10^-5 M. In kind it is functional.
For test [11], the target named is T1, Squalene epoxidase ERG1 (Saccharomyces cerevisiae S288c) (UniProt P32476).
T1 sequence (whole entry): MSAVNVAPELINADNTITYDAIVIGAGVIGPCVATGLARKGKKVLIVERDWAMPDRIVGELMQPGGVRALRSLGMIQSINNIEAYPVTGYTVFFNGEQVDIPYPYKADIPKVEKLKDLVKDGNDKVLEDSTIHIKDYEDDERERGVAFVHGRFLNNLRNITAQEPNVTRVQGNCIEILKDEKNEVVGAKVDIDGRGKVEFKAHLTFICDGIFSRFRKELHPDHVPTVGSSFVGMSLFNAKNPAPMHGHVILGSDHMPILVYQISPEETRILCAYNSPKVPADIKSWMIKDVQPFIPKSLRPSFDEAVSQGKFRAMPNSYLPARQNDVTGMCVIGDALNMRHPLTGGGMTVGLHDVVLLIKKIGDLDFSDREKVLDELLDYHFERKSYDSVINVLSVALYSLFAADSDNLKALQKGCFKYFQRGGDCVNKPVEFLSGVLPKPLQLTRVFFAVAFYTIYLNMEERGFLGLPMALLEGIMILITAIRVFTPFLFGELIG
Description: Inhibition of squalene epoxidase in Saccharomyces cerevisiae IFO 1346 assessed as incorporation of [2-14C]mevalonate into 4alpha-methyl sterols at 1 x 10^-5 M after 3 hr. On the set-up: scale not given: the % may be the effect or the level left.

The target in test [12] is T1, Squalene epoxidase ERG1 (Saccharomyces cerevisiae S288c). In words: Inhibition of squalene epoxidase in Saccharomyces cerevisiae IFO 1346 assessed as incorporation of [2-14C]mevalonate into 4,4-dimethyl sterols at 1 x 10^-5 M after 3 hr. On the set-up: scale not given: the % may be the effect or the level left.
Test [13] shares this target. In words: Inhibition of squalene epoxidase in Saccharomyces cerevisiae IFO 1346 assessed as incorporation of [2-14C]mevalonate into 2,3-oxidosqualene at 1 x 10^-5 M after 3 hr. On the set-up: scale not given: the % may be the effect or the level left.
Test [14] has the same target. In words: Inhibition of squalene epoxidase in Saccharomyces cerevisiae IFO 1346 assessed as incorporation of [2-14C]mevalonate into squalene at 1 x 10^-5 M after 3 hr. On the set-up: scale not given: the % may be the effect or the level left.
Test [15] shares this target. Description: Inhibition of squalene epoxidase in Saccharomyces cerevisiae IFO 1346 assessed as incorporation of [2-14C]mevalonate into 4-desmethyl sterols at 1 x 10^-5 M after 3 hr. On the set-up: scale not given: the % may be the effect or the level left.

On to `COc1cccc(OC)c1-c1csc(Nc2ccc(Cl)cc2)n1`, for which the Activity in test [1] amounted to 30.5%; in test [3], 79.8%; in test [4] it was 46.9%; in test [5] it was 2.3%; in test [6], 84.1%; in [7] it was 70.6%. In addition, the 50% effective concentration (EC50) in test [2] stood at 5 µg/mL (≈ 14.4 µM); in test [9], 0.2 µg/mL (≈ 0.577 µM). This molecule also came in with an MIC in [8] of 0.03 µg/mL (≈ 0.0865 µM).
As for `Clc1ccc(Cc2nc(-c3c(Cl)cccc3Cl)cs2)cc1`, the EC50 in [2] and in test [9] was more than 100 µg/mL throughout. In addition, the Activity in test [3] came to 3.8%. Besides, the MIC in [8] was more than 100 µg/mL.
Take `Clc1ccc(Nc2nc(-c3ccc(Cl)cc3)cs2)cc1`: the values for the EC50 in test [2] and in test [9] were 0.3 µg/mL (≈ 0.934 µM) and more than 100 µg/mL, respectively. Besides, the Activity in test [10] worked out at 8.4%. Moreover, the MIC in [8] was more than 100 µg/mL.
Take `CN(C)c1ccc(Nc2nc(-c3c(Cl)cccc3Cl)cs2)cc1`: the EC50 in [2] and in test [9] was more than 100 µg/mL throughout. The lowest concentration to inhibit growth in [8] (MIC) was 1 µg/mL (≈ 2.74 µM).
Consider `Clc1cccc(Cl)c1-c1csc(Nc2ccccc2)n1`, for which the EC50 in test [2] is 2 µg/mL (≈ 6.23 µM); in test [9] it was more than 100 µg/mL. The molecule also came in with an MIC in test [8] of 1 µg/mL (≈ 3.11 µM).
As for `Clc1ccc(Nc2nc(-c3ccccc3Cl)cs2)cc1`, the EC50 in test [2] is 0.3 µg/mL (≈ 0.934 µM); in test [9], more than 100 µg/mL. For the same molecule, the Activity in test [10] is given as 46.3%; in test [3], 28.8%. Besides, inhibition of growth in [8] (MIC) required 0.3 µg/mL (≈ 0.934 µM).
Regarding `Clc1ccc(Nc2nc(-c3ccccc3)cs2)cc1`, the EC50 in test [2] is 1 µg/mL (≈ 3.49 µM); in test [9] it was more than 100 µg/mL. Moreover, the Activity is recorded as 14.3% in [10] and 2% in test [3]. The same molecule gave an MIC in test [8] of 3 µg/mL (≈ 10.5 µM).
As for `Clc1cccc(Nc2nc(-c3c(Cl)cccc3Cl)cs2)c1`, the results for the EC50 in [2] and in test [9] were 10 µg/mL (≈ 28.1 µM) and more than 100 µg/mL, respectively. Also, in test [3], the Activity was 4%. In [8], this molecule gave an MIC of 0.1 µg/mL (≈ 0.281 µM).
In the case of `CCCOC/C(=N\c1ccc(Cl)cc1C(F)(F)F)n1ccnc1`, the Activity in test [11] was determined as 10.3%; in test [12], 54%; in [13], 2.9%; in test [14], 19.3%; in test [15], 12.6%.
On to `FC(F)(F)c1ccc(Nc2nc(-c3c(Cl)cccc3Cl)cs2)cc1`, for which the EC50 in test [2] and in test [9] was 0.3 µg/mL (≈ 0.771 µM) in each case. The same molecule registered an MIC in test [8] of 0.03 µg/mL (≈ 0.0771 µM).
Consider `Fc1cc(Cl)ccc1Nc1nc(-c2c(Cl)cccc2Cl)cs1`, for which the figures for the EC50 in [2] and in [9] were 0.5 µg/mL (≈ 1.34 µM) and 0.1 µg/mL (≈ 0.268 µM), respectively. The molecule further registered an MIC in [8] of 0.1 µg/mL (≈ 0.268 µM).
With `Clc1ccc(Nc2nc(-c3cccc(Cl)c3)cs2)cc1`, the EC50 was 0.3 µg/mL (≈ 0.934 µM) in test [2] and more than 100 µg/mL in test [9]. Besides, in [10], the Activity stood at 1.7%. In test [8], inhibition of growth (MIC) required 3 µg/mL (≈ 9.34 µM).
As for `COc1ccc(Br)c(OC)c1-c1csc(Nc2ccc(Cl)cc2)n1`, the EC50 in [2] was 0.5 µg/mL (≈ 1.17 µM); in [9], more than 100 µg/mL. The molecule further had an MIC in test [8] of 3 µg/mL (≈ 7.05 µM).
For `CCCc1ccc(Nc2nc(-c3c(Cl)cccc3Cl)cs2)cc1`, in that order: 30 µg/mL (≈ 82.6 µM), more than 100 µg/mL and 0.1 µg/mL (≈ 0.275 µM).
For `Clc1ccc(Nc2nc(-c3c(Cl)cc(Cl)cc3Cl)cs2)cc1`, in that order: 0.3 µg/mL (≈ 0.769 µM), 0.05 µg/mL (≈ 0.128 µM) and 0.1 µg/mL (≈ 0.256 µM).
Regarding `Clc1cccc(Cl)c1-c1csc(Nc2ccc(I)cc2)n1`, the EC50 in test [2] amounted to 0.3 µg/mL (≈ 0.671 µM); in [9], 0.2 µg/mL (≈ 0.447 µM). The molecule further showed an MIC in test [8] of 0.03 µg/mL (≈ 0.0671 µM).
`Clc1ccc(Nc2nc(-c3ccc4ccccc4c3)cs2)cc1`: the Activity in [1] is reported as more than 35%; in test [6], 38.7%. For the same molecule, the EC50 in test [2] and in test [9] was more than 100 µg/mL in each case. Also, in [8], the MIC is more than 100 µg/mL.
Consider `O=[N+]([O-])c1ccc(Nc2nc(-c3c(Cl)cccc3Cl)cs2)cc1`, for which the concentration giving a half-maximal response (EC50) in test [2] and in [9] was more than 100 µg/mL each time. Moreover, it took 30 µg/mL (≈ 81.9 µM) to inhibit growth in test [8] (MIC).
For the molecule `COc1ccc(Nc2nc(-c3c(Cl)cccc3Cl)cs2)cc1`, the EC50 in [2] is 10 µg/mL (≈ 28.5 µM); in test [9] it was more than 100 µg/mL. The molecule also yielded an MIC in test [8] of 0.1 µg/mL (≈ 0.285 µM).
For `C[S+]([O-])c1ccc(Nc2nc(-c3c(Cl)cccc3Cl)cs2)cc1` (stereo not drawn), in that order: 2 µg/mL (≈ 5.22 µM), more than 100 µg/mL and 30 µg/mL (≈ 78.3 µM).

As a reminder, the EC50 is the concentration needed to bring the measured effect to its halfway point. What is called MIC is the lowest concentration that inhibits growth of the organism.
